Measured values as given in the NIST ThermoML archive (doi:10.1021/je101156d).

Test: mn = molality of the nth substance listed, in mol/kg
Conditions: 101.3 kPa, Liquid, Dip Cell

CC(CN1c2ccccc2Sc2ccccc21)N(C)C.Cl (stereo not given) [promethazine hydrochloride] + O
electrical conductivity [S/m]
Conditions | 293.15 K | 303.15 K | 313.15 K | 323.15 K
m1 = 0.00484 | 0.029 | 0.039 | 0.05 | 0.063
m1 = 0.00938 | 0.065 | 0.075 | 0.092 | 0.105
m1 = 0.0136 | 0.099 | 0.109 | 0.131 | 0.144
m1 = 0.0176 | 0.13 | 0.14 | 0.167 | 0.18
m1 = 0.0214 | 0.159 | 0.169 | 0.199 | 0.212
m1 = 0.025 | 0.184 | 0.194 | 0.229 | 0.242
m1 = 0.0284 | 0.208 | 0.218 | 0.257 | 0.27
m1 = 0.0316 | 0.23 | 0.24 | 0.285 | 0.298
m1 = 0.0346 | 0.251 | 0.261 | 0.309 | 0.322
m1 = 0.0375 | 0.271 | 0.281 | 0.332 | 0.345
m1 = 0.0402 | 0.289 | 0.299 | 0.353 | 0.366
m1 = 0.0429 | 0.307 | 0.317 | 0.376 | 0.389
m1 = 0.0453 | 0.327 | 0.337 | 0.395 | 0.408
m1 = 0.0477 | 0.336 | 0.346 | 0.413 | 0.426
m1 = 0.05 | 0.347 | 0.357 | 0.428 | 0.447
m1 = 0.0522 | 0.358 | 0.368 | 0.44 | 0.457
m1 = 0.0543 | 0.369 | 0.379 | 0.45 | 0.467
m1 = 0.0563 | 0.38 | 0.39 | 0.46 | 0.477
m1 = 0.0582 | 0.391 | 0.401 | 0.47 | 0.487
m1 = 0.06 | 0.402 | 0.412 | 0.48 | 0.497
m1 = 0.0618 | 0.41 | 0.42 | 0.488 | 0.505
m1 = 0.0635 | 0.417 | 0.427 | 0.496 | 0.513
m1 = 0.0651 | 0.424 | 0.434 | 0.504 | 0.52
m1 = 0.0667 | 0.431 | 0.441 | 0.512 | 0.527
m1 = 0.0682 | 0.438 | 0.448 | 0.52 | 0.534
m1 = 0.0696 | 0.445 | 0.455 | 0.528 | 0.54
m1 = 0.0711 | 0.452 | 0.462 | 0.536 | 0.546
m1 = 0.0724 | 0.459 | 0.469 | 0.542 | 0.552
m1 = 0.0737 | 0.466 | 0.476 | 0.548 | 0.557
m1 = 0.075 | 0.473 | 0.483 | 0.554 | 0.562
